{"source": "patent US7608761B2", "about": "“Method for disease control in MON89788 soybean” (Monsanto Technology LLC, priority 2005, dated 2009)", "key": {"powdery mildew disease": {"test_system": "powdery mildew disease", "assay": "Powdery mildew disease control on MON89788", "format": "in vivo, Microsphaera diffusa", "details": "for DS Mean (powdery mildew): treated 1 DBI, no spray control 4.65", "from_the_text": "The mean disease severity score for the no spray control was 4.65, the glyphosate treatments provided a high level of disease control at all treatment rates."}, "[1]": {"test_system": "Asian Soybean Rust (ASR) (Loxley Al isolate)", "assay": "Growth chamber detached soybean leaf assay, ASR on MON89788", "format": "in vivo, Phakopsora sp.", "method": "Growth chamber and greenhouse assays were conducted to determine if glyphosate treatments (Roundup® WeatherMax) decreased the disease severity of Asian Soybean Rust (ASR) on MON89788. Growth chamber assays were conducted following a detached leaf assay method. Plants of MON89788 were grown in the greenhouse and leaves from the 3rd trifoliate were detached and placed in 6-well trays with water. Five treatments were evaluated: (1) an untreated check inoculated with spores of ASR (Loxley Al isolate); (2) leaf tissue of MON89788 inoculated with ASR spores and treated with glyphosate post-sporulation (13 days after inoculation with spores (DAI)); (3) MON89788 treated with 1× rate (0.75 lb/acre) of Roundup® WeatherMax 5 DAI; (4) MON89788 treated with […] of Roundup® WeatherMax 5 DAI; and (5) MON89788 treated with 3× rate of Roundup® WeatherMax 5 DAI.\nThe leaves were rated for disease severity 12 DAI, 20 DAI, and 25 DAI.\nThe analysis of the disease progression is illustrated in FIG. 2 and measured as the Area Under Disease Progress Curve (AUDPC) for the same material summarized in FIG. 1. […] The disease progression was reduced for all glyphosate treatments at 5DAI and the 2× rate post-sporulation."}, "Cercospora leaf blight": {"test_system": "Cercospora leaf blight", "assay": "Greenhouse disease severity on MON89788, Cercospora leaf blight", "format": "in vivo, Cercospora carotae", "parameters": "key to Cercospora Leaf Blight disease severity (DS): 1 = no symptoms; 2 = ≤10% leaf infected … 9 = >85% leaf infected", "details": "1-9 scale", "method": "(§1) Soybean plants comprising event MON89788 and grown under standard conditions in a greenhouse were treated with 1×, 2× or 3× concentrations of glyphosate and inoculated with the plant pathogens 1 DBI, 1 DAI and 4 DAI. Disease symptoms for each disease was rated on a 1-9 scale as an approximate measure of disease severity (DS)occurring on the leaves, 1 is no symptoms, 2 is up to 10% of the leaf infected, 3 is 11-20% of the leaf infected, 4 is 21-35%, 5 is 36-50%, 7 is 66-75%, 8 is 76-85%, 9 is greater than 85% of the leaf is infected and showing disease symptoms."}, "[2]": {"test_system": "Cercospora leaf blight (Cercospora carotae)", "assay": "Greenhouse disease severity on MON89788, Cercospora leaf blight", "format": "in vivo", "parameters": "key to Cercospora Leaf Blight disease severity (DS): 1 = no symptoms; 2 = ≤10% leaf infected … 9 = >85% leaf infected", "details": "1×, 2× or 3×; 1 DBI, 1 DAI and 4 DAI", "method": "as §1"}, "[3]": {"test_system": "Aerial blight (Rhizoctonia solani)", "assay": "Greenhouse disease severity on MON89788, Aerial blight", "format": "in vivo", "details": "for Aerial Blight disease severity (DS): 1-9 scale", "method": "as §1"}, "Asian Soybean Rust (ASR)": {"test_system": "Asian Soybean Rust (ASR)", "assay": "Greenhouse assay on intact MON89788 plants, ASR", "format": "in vivo, Phakopsora sp.", "method": "Greenhouse assays on intact MON89788 plants were treated with 1×, 2×, and 3× rates of Roundup® WeatherMax at 6 DBI (days before inoculation) and 9 DAI. Results for this experiment were collected 17 DAI."}, "[4]": {"test_system": "Frogeye Leafspot (Cercospora sojina)", "assay": "Greenhouse disease severity on MON89788, Frogeye Leafspot", "format": "in vivo", "parameters": "key to Frogeye disease severity (DS): 1 = no symptoms; 2 = ≤10% leaf infected … 9 = >85% leaf infected", "details": "for Frogeye disease severity (DS): 1-9 scale", "method": "as §1"}, "[5]": {"details": "1×, 2× or 3×, 1 DBI, 1 DAI and 4 DAI"}}, "data": [{"smiles": "O=C(O)CNCP(=O)(O)O", "note": "[glyphosate, N-phosphonomethylglycine]", "values": [{"measurement": "DS Mean (powdery mildew)", "setting": "powdery mildew disease; 0.75 lb ae/a (1X)", "result": 1}, {"measurement": "DS Mean (powdery mildew)", "setting": "powdery mildew disease; 1.5 lb ae/a (2X)", "result": 1}, {"measurement": "DS Mean (powdery mildew)", "setting": "powdery mildew disease; 2.25 lb ae/a (3X)", "result": 1}, {"measurement": "control of powdery mildew disease", "setting": "powdery mildew disease; treated 1 DBI with any of the three rates", "result": "high level of control"}, {"measurement": "Area Under Disease Progress Curve (AUDPC)", "setting": "[1]; 2× rate", "result": "lower compared to other treatments"}, {"measurement": "disease progression (AUDPC)", "setting": "[1]; 2× rate post-sporulation", "result": "reduced"}, {"measurement": "Area Under Disease Progress Curve (AUDPC)", "setting": "[1]; 3× rate", "result": "lower compared to other treatments"}, {"measurement": "disease progression (AUDPC)", "setting": "[1]; all glyphosate treatments at 5DAI", "result": "reduced"}, {"measurement": "ASR sporulation", "setting": "[1]; post-disease development/sporulation treatments", "result": "appeared to arrest sporulation"}, {"measurement": "Cercospora Leaf Blight disease severity (DS)", "setting": "Cercospora leaf blight; 1 day post inoculation, 1X", "result": 2.8}, {"measurement": "Cercospora Leaf Blight disease severity (DS)", "setting": "Cercospora leaf blight; 1 day post inoculation, 2X", "result": 6.4}, {"measurement": "Cercospora Leaf Blight disease severity (DS)", "setting": "Cercospora leaf blight; 1 day post inoculation, 3X", "result": 6.5}, {"measurement": "Cercospora Leaf Blight disease severity (DS)", "setting": "Cercospora leaf blight; 1 day pre inoculation, 1X", "result": 2.8}, {"measurement": "Cercospora Leaf Blight disease severity (DS)", "setting": "Cercospora leaf blight; 1 day pre inoculation, 2X", "result": 6.1}, {"measurement": "Cercospora Leaf Blight disease severity (DS)", "setting": "Cercospora leaf blight; 1 day pre inoculation, 3X", "result": 3.8}, {"measurement": "Cercospora Leaf Blight disease severity (DS)", "setting": "Cercospora leaf blight; 4 days post inoculation, 1X", "result": 3.3}, {"measurement": "Cercospora Leaf Blight disease severity (DS)", "setting": "Cercospora leaf blight; 4 days post inoculation, 2X", "result": 3.2}, {"measurement": "Cercospora Leaf Blight disease severity (DS)", "setting": "Cercospora leaf blight; 4 days post inoculation, 3X", "result": 4.9}, {"measurement": "disease severity control, Cercospora leaf blight", "setting": "[2]", "result": "preventative and curative disease severity control"}, {"measurement": "Aerial Blight disease severity (DS)", "setting": "[3]; 1 day post inoculation, 1X", "result": 5.0}, {"measurement": "Aerial Blight disease severity (DS)", "setting": "[3]; 1 day post inoculation, 2X", "result": 6.4}, {"measurement": "Aerial Blight disease severity (DS)", "setting": "[3]; 1 day post inoculation, 3X", "result": 6.9}, {"measurement": "Aerial Blight disease severity (DS)", "setting": "[3]; 1 day pre inoculation, 1X", "result": 7.1}, {"measurement": "Aerial Blight disease severity (DS)", "setting": "[3]; 1 day pre inoculation, 3X", "result": 8.0}, {"measurement": "Aerial Blight disease severity (DS)", "setting": "[3]; 4 days post inoculation, 1X", "result": 7.6}, {"measurement": "Aerial Blight disease severity (DS)", "setting": "[3]; 4 days post inoculation, 2X", "result": 4.4}, {"measurement": "Aerial Blight disease severity (DS)", "setting": "[3]; 4 days post inoculation, 3X", "result": 7.9}, {"measurement": "disease severity control, Aerial blight", "setting": "[3]; [5]", "result": "preventative and curative disease severity control"}, {"measurement": "levels of ASR infection and disease", "setting": "Asian Soybean Rust (ASR); 1×, 2×, 3× at 6 DBI or 9 DAI, all except 1× at 6 DBI, collected 17 DAI", "result": "lower levels of ASR infection and disease"}, {"measurement": "rate of ASR disease development", "setting": "Asian Soybean Rust (ASR); pre-inoculation treatments", "result": "appeared to slow the rate of disease development"}, {"measurement": "levels of ASBR", "setting": "Asian Soybean Rust (ASR); split treatments (1× pre+1× post-inoculation)", "result": "reduced levels of ASBR similar to single 2× and 3× pre- or post-inoculation"}, {"measurement": "Frogeye disease severity (DS)", "setting": "[4]; 1 day post inoculation, 1X", "result": 3.4}, {"measurement": "Frogeye disease severity (DS)", "setting": "[4]; 1 day post inoculation, 2X", "result": 3.3}, {"measurement": "Frogeye disease severity (DS)", "setting": "[4]; 1 day post inoculation, 3X", "result": 7.2}, {"measurement": "Frogeye disease severity (DS)", "setting": "[4]; 1 day pre inoculation, 1X", "result": 2.7}, {"measurement": "Frogeye disease severity (DS)", "setting": "[4]; 1 day pre inoculation, 2X", "result": 3.7}, {"measurement": "Frogeye disease severity (DS)", "setting": "[4]; 1 day pre inoculation, 3X", "result": 3.8}, {"measurement": "Frogeye disease severity (DS)", "setting": "[4]; 4 days post inoculation, 1X", "result": 3.7}, {"measurement": "Frogeye disease severity (DS)", "setting": "[4]; 4 days post inoculation, 2X", "result": 5.3}, {"measurement": "Frogeye disease severity (DS)", "setting": "[4]; 4 days post inoculation, 3X", "result": 2.3}, {"measurement": "disease severity control, Frogeye Leafspot", "setting": "[4]; [5]", "result": "preventative and curative disease severity control"}]}]}
